Patent publication US20070172436A1 (priority 2006, published 2007)

Columns and labels:
[1] = co-pending application Ser. No. 11/242,306; cited from earlier work
[2] = Solubilization of ascorbic acid in absolute ethanol at room temperature, with or without urea; settings: 2.00% urea, 95.50% ethanol, stirring about 16 hours
Method: The solubilization process was conducted at room temperature.
The mixture was kept at room temperature, while stirring until dissolved. Vitamin E acetate was added to the mixture. Vitamin E acetate was solubilized in the mixture.

[3] = Solubilization of ascorbic acid in propylene glycol at room temperature, with or without urea; assay type: physicochemical; settings: 7.0% ascorbic acid, 5.0% urea, 88.0% propylene glycol, stirring about 16 hours
Method: The solubilization process was carried out at room temperature.
The two sets of experiments (EXAMPLE 5 and EXAMPLE 6) were carried out side by side for comparison.

SMILES	concentration of dissolved ascorbic acid in nonaqueous alcohol solvents with urea and/or urea derivatives [1] [% by weight]	dissolution in absolute ethanol [2]	dissolution in propylene glycol [3]
O=C1O[C@H]([C@@H](O)CO)C(O)=C1O [ascorbic acid, L-ascorbic acid]	≤ 28		
NC(N)=O [urea, Urea]		completely dissolved	completely dissolved
